Assay results published in PMC9718554, “Discovery of a fragment hit compound targeting D-Ala:D-Ala ligase of bacterial peptidoglycan biosynthesis” (Journal of Enzyme Inhibition and Medicinal Chemistry, 2022).
Like-named read-outs stand apart in the source and are kept apart here.

Target: T1, E. coli DdlB enzyme (D-alanine:D-alanine ligase) (Escherichia coli, UniProt P07862)
T1 construct: made in house; host or cells: E. coli
Assay: biochemical
Details: read-out: DdlB RA; for remaining activity at 2200 µM: tested concentration 2.2 mM; for remaining activity at 1700 µM: tested concentration 1.7 mM; for remaining activity at 1800 µM: tested concentration 1.8 mM; for remaining activity at 2100 µM: tested concentration 2.1 mM; for remaining activity at 2300 µM: tested concentration 2.3 mM; for remaining activity at 2000 µM: tested concentration 2.0 mM; for remaining activity at 2400 µM: tested concentration 2.4 mM; for remaining activity at 2900 µM: tested concentration 2.9 mM; for remaining activity at 3100 µM: tested concentration 3.1 mM; for remaining activity at 3400 µM: tested concentration 3.4 mM; for remaining activity at 3500 µM: tested concentration 3.5 mM; for remaining activity at 1900 µM: tested concentration 1.9 mM; for remaining activity at 2500 µM: tested concentration 2.5 mM
Protocol: The fragment library was assayed in a DdlB inhibition assay, where fragments were tested for their ability to inhibit the D-Ala-adding activity of DdlB ligase. The orthophosphate formed during the enzymatic reaction was measured spectrophotometrically using malachite green reagent.
A recombinant E. coli DdlB enzyme (D-alanine:D-alanine ligase) was expressed in E. coli[11]. […] The final DMSO concentration was 5%. […] All experiments were performed in duplicates. […] IC50 values were determined by measuring the residual activities in quadruplicate at seven different compound concentrations and calculated using in GraphPad Prism (GraphPad Software, San Diego, CA, USA).

[1] = residual activity of DdlB, fragment library screening

Compound O=S(=O)(O)c1ccc(O)c2ncccc12 [Compound 4311-2142] has a remaining activity at 2200 µM of 96%.

O=C(COc1cccc(Br)c1)Nc1nnc[nH]1 [Compound 4491-0732] gave a remaining activity at 1700 µM of 94%.

With Cc1cccc(C)c1NC(=O)C[C@H](NCCO)C(=O)O [Compound 4553-3784] the remaining activity at 1800 µM (fragment library screening) was 102%.

In the case of CC(C)n1c(S(=O)(=O)O)nc2ccccc21 [Compound 4587-0081], the remaining activity at 2100 µM was 83%.

Compound CC1(C)Cc2[nH]c(=O)c(C(=O)O)cc2CO1 [Compound 4965-0162] has a remaining activity at 2200 µM (residual activity) of 93%.

Compound c1ccc2c(c1)N(CN1CCCC1)CC21OCCO1 [Compound 5482-0050] has a remaining activity at 2300 µM of 94%.

In the case of CC1(C)Cc2nc(N)c(C(=O)O)cc2CO1 [Compound 5545-0125], the remaining activity at 2300 µM (residual activity) was 95%.

Compound CN1CCN(C2CC(=O)N(c3ccccc3)C2=O)CC1 (centres unmarked) [Compound 5593-0294] has a remaining activity at 2000 µM (residual activity) of 99%.

With Cc1ccc([C@@H](CC(=O)O)c2ccco2)cc1 [Compound 5664-0388] the remaining activity at 2200 µM was 100%.

CC(=O)CC1(O)C(=O)Nc2ccc(Br)cc21 (centres unmarked) [Compound 5897-0084] was tested, and the remaining activity at 1800 µM (residual activity) was 96%.

In the case of O=S(=O)(O)CCN1CCN(CCO)CC1 [Compound 6105-1549], the remaining activity at 2100 µM was 99%.

CCOc1ccc([C@@H](CC(=O)O)NC(C)=O)cc1 [Compound 6705-0233] gave a remaining activity at 2000 µM (fragment library screening) of 87%.

COc1ccc(OC)c(-c2oc3ccccc3c(=O)c2O)c1 [Compound 6877-0609] showed a remaining activity at 1700 µM of 102%.

Cc1ccc(CC2CC(=O)N(c3ccncc3)C2=O)cc1 (centres unmarked) [Compound 6903-0015] gave a remaining activity at 2000 µM (residual activity) of 84%.

For O=C(Nc1ccccn1)NC1CCS(=O)(=O)C1 (centres unmarked) [Compound 7098-0576], the remaining activity at 2400 µM was 87%.

With Nc1ncnc2[nH]c(N3CCOCC3)nc12 [Compound 8001-0336] the remaining activity at 2300 µM (residual activity) was 98%.

Compound Nc1ccc(S(=O)(=O)O)cc1 [Compound 8001-1265] has a remaining activity at 2900 µM of 95%.

Work on O=C(Nc1nc[nH]n1)c1ccc(Cl)cc1 [Compound 8003-7117] yielded a remaining activity at 2200 µM (residual activity) of 103%.

In the case of O=C1CSC2N1CCNC21CCCCC1 (centres unmarked) [Compound 8003-7360], the remaining activity at 2200 µM was 90%.

With CCC(CC)NC1=NS(=O)(=O)c2ccccc21 [Compound 8003-7481] the remaining activity at 2400 µM was 100%.

NCCNC(=O)c1nonc1N [Compound 8006-0101] showed a remaining activity at 3200 µM (residual activity of DdlB, fragment library screening, tested concentration 3.2 mM) of 93%.

CC(=O)Nc1ccc2c(C)cc(C)nc2n1 [Compound 8006-1575] gave a remaining activity at 2300 µM of 97%.

Cc1ccc(C(=O)O)c(NC(=O)c2ccncc2)c1 [Compound 8006-9224] was tested, and the remaining activity at 2000 µM (residual activity) was 97%.

CCCOc1ccc(C(=O)NCC(=O)O)cc1 [Compound 8007-0359] showed a remaining activity at 2100 µM of 86%.

Cc1ccc(C2(O)CC(C)N(C)CC2C)cc1 (centres unmarked) [Compound 8007-1141] gave a remaining activity at 2600 µM (tested concentration 2.6 mM) of 94%.

O=C(O)Cn1nnc(-c2ccccc2Cl)n1 [Compound 8007-4998] showed a remaining activity at 2100 µM of 93%.

For COC(=O)N1C2C=CC(C2)C1(C(F)(F)F)C(F)(F)F (centres unmarked) [Compound 8007-6774], the remaining activity at 2100 µM (residual activity) was 89%.

NS(=O)(=O)Cc1ccccc1Cl [Compound 8008-0774] showed a remaining activity at 2400 µM of 89%.

Cc1cc(C)c(S(N)(=O)=O)c(Cl)n1 [Compound 8008-1931] was tested, and the remaining activity at 2300 µM was 78%.

For CCN(CC)S(=O)(=O)c1ncn[nH]1 [Compound 8008-1932], the remaining activity at 2400 µM was 93%.

In the case of OB1OCc2ccccc21 [Compound 8008-5589], the remaining activity at 3700 µM (tested concentration 3.7 mM) was 85%.

Work on Cc1nc(C#N)c(N2CCOCC2)o1 [Compound 8008-9715] yielded a remaining activity at 3100 µM of 93%.

For Cc1cccc(C(=O)O)c1NC(=O)c1ccc(F)cc1 [Compound 8009-0898], the remaining activity at 1800 µM (residual activity) was 99%.

N#Cc1ccc(NC(=O)[C@H]2CC=CC[C@H]2C(=O)O)cc1 [Compound 8009-1194] was tested, and the remaining activity at 2000 µM (residual activity) was 91%.

With O=S(=O)(O)c1ccc2cccc(O)c2n1 [Compound 8009-2146] the remaining activity at 2200 µM was 96%.

For O=C(O)C#CC12CC3CC(CC(C3)C1)C2 [Compound 8009-2654], the remaining activity at 2400 µM was 112%.

With CC1CN(c2ccccc2)NC1=O (centres unmarked) [Compound 8009-3796] the remaining activity at 3400 µM [1] was 97%.

Compound Cc1cc(F)c(F)c(C(=O)n2ccnc2)c1Cl [Compound 8009-4247] has a remaining activity at 2100 µM of 102%.

Cc1nc2nc(S(N)(=O)=O)nn2c(C)c1C [Compound 8009-4322] gave a remaining activity at 2100 µM of 97%.

With Cc1ccc(C#N)c(SCC(=O)O)n1 [Compound 8009-7785] the remaining activity at 2400 µM was 82%.

Work on Oc1nsnc1N1CCOCC1 [Compound 8009-8691] yielded a remaining activity at 2700 µM (tested concentration 2.7 mM) of 88%.

CCc1c(C)nn2cnnc2c1O [Compound 8010-0007] was tested, and the remaining activity at 3400 µM [1] was 97%.

For Cc1ccc(Cl)cc1S(=O)(=O)N1CCOCC1 [Compound 8010-0539], the remaining activity at 2000 µM (residual activity) was 98%.

O=[N+]([O-])c1cc(CN2CCCC2)c2cccnc2c1O [Compound 8010-2705] was tested, and the remaining activity at 1800 µM (residual activity) was 57%.

Nc1n[nH]c(CC(=O)O)n1 [Compound 8010-3882] gave a remaining activity at 3500 µM of 100%.

CCCc1cc(C(=O)O)n(C)n1 [Compound 8010-6224] showed a remaining activity at 3300 µM (residual activity of DdlB, fragment library screening, tested concentration 3.3 mM) of 90%.

In the case of Cc1ccc(C(=O)CC2(O)C(=O)Nc3ccccc32)c(C)c1 (centres unmarked) [Compound 8010-6588], the remaining activity at 1700 µM was 93%.

In the case of O=C(O)c1ccccc1NC(=O)c1[nH]ncc1[N+](=O)[O-] [Compound 8010-7769], the remaining activity at 1800 µM (residual activity) was 99%.

COC(C(=O)NC1CC1)c1ccccc1 (centres unmarked) [Compound 8010-8989] showed a remaining activity at 2400 µM of 94%.

With Cc1cc2nc(O)c(CCO)c(C)n2n1 [Compound 8011-1975] the remaining activity at 2900 µM was 95%.

Work on CSCCC(C(=O)O)N1C(=O)NC2NC(=O)NC21 (centres unmarked) [Compound 8011-2492] yielded a remaining activity at 1800 µM of 95%.

With O=C(O)C1CSC(c2c(F)cc(F)cc2F)N1 (centres unmarked) [Compound 8011-4426] the remaining activity at 1900 µM was 90%.

In the case of NC(=O)N[C@@H](Cc1ccccc1)C(=O)O [Compound 8011-7026], the remaining activity at 2400 µM was 93%.

For CC1SC(c2ccc(Cl)c(Cl)c2)NC1=O (centres unmarked) [Compound 8011-7610], the remaining activity at 1900 µM was 80%.

Oc1cc(-c2ccncc2)n[nH]1 [Compound 8011-7794] was tested, and the remaining activity at 3100 µM was 77%.

For COC(=O)c1sc(C(=O)OC)c(O)c1O [Compound 8011-7913], the remaining activity at 2200 µM (residual activity) was 86%.

In the case of O=C(Nc1ccccc1)c1nc[nH]c1C(=O)O [Compound 8011-9089], the remaining activity at 2200 µM (residual activity) was 104%.

For NC(=O)NCC(=O)N[C@H](Cc1c[nH]cn1)C(=O)O [Compound 8012-0410], the remaining activity at 2000 µM (fragment library screening) was 91%.

For CC(C)C(=O)Nc1ccc(Cl)cc1C(=O)O [Compound 8012-2055], the remaining activity at 2100 µM (residual activity) was 110%.

With CC1(C)CC(=O)CC(C)(C)N1OC(=O)c1ccccn1 [Compound 8012-5220] the remaining activity at 2200 µM (residual activity) was 97%.

Cc1cc(C)n(CCO)c(=O)n1 [Compound 8012-5852] showed a remaining activity at 2400 µM [1] of 94%.

O=C(O)CCNc1nc(F)cc(F)n1 [Compound 8012-6989] was tested, and the remaining activity at 2500 µM was 93%.

Compound CC(C)(C)c1cc(C(=O)O)nn1-c1ccccc1 [Compound 8012-7831] has a remaining activity at 2000 µM (residual activity) of 102%.

Nn1cnn(Cc2ccc([N+](=O)[O-])cc2)c1=O [Compound 8012-9514] gave a remaining activity at 2100 µM of 106%.

In the case of O=S(=O)(c1ncn[nH]1)N1CCOCC1 [Compound 8013-0403], the remaining activity at 2300 µM (residual activity) was 95%.

Compound CCN(Cc1ccccc1)S(=O)(=O)c1ncn[nH]1 [Compound 8013-0404] has a remaining activity at 1900 µM (residual activity) of 89%.

In the case of C#CC1(O)C(C)CN(C)CC1C (centres unmarked) [Compound 8013-1764], the remaining activity at 3600 µM (residual activity of DdlB, fragment library screening, tested concentration 3.6 mM) was 97%.

COc1ccc(C(O)(C(=O)O)C(F)(F)F)cc1OC (centres unmarked) [Compound 8013-2786] gave a remaining activity at 1800 µM (residual activity) of 94%.

O=C1CC2CS(=O)(=O)CC2N1C1CCCCC1 (centres unmarked) [Compound 8013-3540] gave a remaining activity at 2100 µM of 82%.

For CC1(C)CC(n2nc(O)cc2N)CCO1 (centres unmarked) [Compound 8013-3639], the remaining activity at 2400 µM was 101%.

Compound CC1(C)Cc2noc(N)c2C(C)(C)N1O [Compound 8013-4059] has a remaining activity at 2200 µM of 96%.

O=c1[nH]c2cc(S(=O)(=O)N3CCCCC3)ccc2o1 [Compound 8013-5568] gave a remaining activity at 1800 µM of 103%.

Compound O=C(O)Cn1nnc(O)n1 [Compound 8013-5932] has a remaining activity at 3500 µM of 86%.

COc1ccc(-n2c(C)ccc2C)nc1 [Compound 8014-1211] was tested, and the remaining activity at 2500 µM was 22%.

Work on CC(C)(C)C(N)Cn1cccn1 (centres unmarked) [Compound 8014-1588] yielded a remaining activity at 2100 µM [1] of 99%.

In the case of O=C1C(O)CC2c3ccccc3CC3(CCCC3)N12 (centres unmarked) [Compound 8014-1716], the remaining activity at 2300 µM was 85%.

CC(C)n1ncc(C(N)=O)c1N [Compound 8014-2120] showed a remaining activity at 3000 µM (residual activity of DdlB, fragment library screening, tested concentration 3.0 mM) of 92%.
